# Test results: patent US20260215432A1, “ANTIMICROBIAL CONJUGATED OLIGOELECTROLYTES AND METHODS THEREOF” (National University of Singapore, priority 2023, published 2026)
# Tests used:
# [1] = tested on: A549 (lung epithelial cells); experiment: Cytotoxicity against mammalian cell line; assay type: cell-based
# Experimental: The cytotoxicity of the TPP COEs was also tested against a mammalian cell line (A549).
# PAO1 [2] = experiment: Membrane depolarization assay (DiSC3(5)); assay type: cell-based, P. aeruginosa; settings: DiSC3(5)-encapsulated PAO1 cells
# Excerpt: The interactions of DM6P with various bacterial cell membranes were first investigated through spectrometric methods. In normal cells, compartmentalization of the intracellular space by the lipid bilayer enables the maintenance of a transmembrane potential, which is necessary for regular cell division and energy production. The membrane-potential sensitive dye 3,3′-dipropylthiadicarbocyanine iodide (DiSC3(5)) accumulates within the membranes of healthy, polarized cells where its fluorescence is self-quenched. Depolarization of the membrane necessary to maintain this gradient causes the release of this dye, resulting in an increase in fluorescence intensity. […]
# Determination of the extent of depolarization of bacterial cell membranes was carried out using a voltage sensitive dye DiSC3(5) (ThermoFisher, USA). The dye is able to accumulate within polarized healthy cell membranes with resulting quenched fluorescence. When the membrane is depolarized, subsequent ion permeabilization releases the dye from the membrane and gives rise to enhanced fluorescence intensity.^3 The assay was performed according to a modified protocol reported previously. […] The plate was incubated in the dark for 30 minutes, with the signal measured every 5 minutes until a stable baseline was observed. COEs were then added at varying concentrations and the fluorescence intensity was measured over time at 37° C. […]
# PAO1 [3] = experiment: Propidium iodide influx assay; assay type: cell-based, P. aeruginosa; settings: PAO1, 2 to 8 μg mL^−1 (half to twice the MIC)
# Excerpt: Another hallmark of cytoplasmic membrane damage is an enhanced permeability towards small molecules. Propidium iodide (PI) is a membrane-impermeant organic dye that can be used to study potential mechanisms of action of antibiotics due to its enhanced fluorescence intensity upon binding to intracellular DNA. Treatment with molecules that cause membrane perturbations enable rapid influx of the dye, resulting in an increase in fluorescence emission that can be monitored over time. […] This difference hints at two plausible mechanisms of action that are concentration dependent. Similar observations have been made for tobramycin, where a protein inhibition mode of action at lower concentrations (<4 μg mL^−1) is supplanted by disruption of the outer membrane at higher concentrations (8 μg mL^−1).
# The assay was performed according to a modified reported protocol.^4 Briefly, the corresponding bacteria was collected from mid-log cultures by centrifugation (7000 rpm, 10 minutes) and washed thrice with PBS. The pellet was then resuspended in the same buffer and diluted to an optical density of 2 by extrapolation. […] Fluorescence intensity was measured over time in a plate reader with an excitation wavelength of 525 nm and emission wavelength of 620 nm. Fluorescence signals were measured every 30 seconds and carried out in triplicate.
# MRSA [4] = experiment: Transmission electron microscopy of treated cells; assay type: cell-based, S. aureus; settings: 4 μg mL^−1 for 30 minutes
# Experimental: Damage to the bacterial cell membrane was observed by transmission electron microscopy (TEM). S. aureus cells were incubated with DM6P at 4 μg mL^−1 for 30 minutes and fixed immediately to preserve the membrane ultrastructure as close to the point of cell death as possible. […] In FIG. 7d, cytoplasmic membrane separation, which is a key hallmark of plasmolysis was also observed in a cell, presumably in an earlier stage of death prior to leakage of intracellular components. These observations are consistent with micrographs from cells treated by membrane active AMPs Gramicidin S and PGLa. Taken together, these morphological features are in line with the central idea that TPP-COEs induce damage to the cellular membrane, similar to previously studied COEs. Cellular leakage, protein delocalization and inactivation, and small-molecule permeation are downstream observations frequently associated with cell membrane perturbations.
# A mid-log culture of MRSA was treated either with DM6P at 4 Ig mL^−1 or PBS (control) and incubated for 30 minutes. Cells were then fixed with 4% glutaraldehyde at 4° C. overnight and collected by centrifugation (7000 rpm, 10 minutes). The cell pellets were post-fixed with 0.2% OsO4, serially dehydrated in a graded ethanol series, and embedded in an epoxy resin. […]
# MRSA [5] = experiment: S. aureus murine wound infection model; assay type: in vivo, mice; settings: 0.05 mg/kg, MRSA-inoculated mouse wound, 24 hours
# Experimental: To probe the potential of TPP-COEs as viable therapeutics, we assessed the efficacy of DM6P to treat bacterial infections in vivo. An S. aureus murine wound infection model was used due to prevalent clinical concerns associated with S. aureus skin and soft tissue infections (SSTIs). […] Relative to current clinical dosages of 4-6 mg/kg for daptomycin, the low concentrations required to achieve such activity in vivo and absence of bacterial regrowth after 24 hours underscores the potential for further developing TPP-COEs with improved activity and safety profiles.
# Animal experiments were approved by the Institutional Animal Care and Use Committee (IACUC), National University of Singapore (R20-1178) and carried out in line with procedures in the Guide for the Care and Use of Laboratory Animals (National Institutes of Health). C57BL6 mice (female, 18-20 g) were anaesthetized by ketamine and the hair at the back were shaved and removed. A 6 mm-diameter excisional wound was created on the back using a biopsy punch. Log phase MRSA (in 5 μl PBS) were inoculated onto the wound. A 3M tegaderm were used to cover the wound site from contamination. […] Significant levels were evaluated by a one-way ANOVA followed by a multiple comparison analysis of variance by a one-way Tukey test (Graphpad PRISM).
# [6] = phosphate-buffered saline; below 10 μg mL^−1 estimated by turbidimetric screening
# Experimental: The solubility of all the TPP derivatives was determined in phosphate-buffered saline (PBS) (Table S3).
compound,measurement,setting,value
COc1cc(/C=C/c2ccc(OCCCCCC[P+](c3ccccc3)(c3ccccc3)c3ccccc3)c(OC)c2)ccc1OCCCCCC[P+](c1ccccc1)(c1ccccc1)c1ccccc1.[I-].[I-] [DM6P],IC50,[1],11 µg/mL
same,depolarization of the bacterial membrane,PAO1 [2],dose-dependent depolarization
same,PI influx,PAO1 [3],increase in PI influx appeared to be independent of concentration
same,membrane damage by TEM,MRSA [4],visible cellular shrinkage and membrane disintegration
same,reduction in bacterial load compared to the saline-treated group,MRSA [5],3.8 log fold
same,solubility in PBS,[6],108 µg/mL
